Source: patent publication US5840740A, “Aminosterol compounds and a method of treating infection using the aminosterol compounds” (priority 1995, dated 1998)
Entries after “also recorded” stand apart in the source; their conditions may differ.

Experiments:
[1] = Hematological profile in L1210-inoculated mice
Text: C57B mice were inoculated with L1210 lymphoblastic leukemia cells at an inoculum that causes leukemia in 100% of animals.

[2] = system: NHE1β; settings: background, nucleated erythrocytes; cited from earlier work
[3] = system: B16 melanoma; test: B16 melanoma growth in C57B mice; type: in vivo, mouse; settings: compound 319, text subcutaneous, FIG. 6 legend intraperitoneal
Procedure: The growth of B16 melanoma in C57B mice is dependent upon neovascularization.
Using the growth of B16 melanoma cells in C57B mice, a recognized model for the evaluation of inhibitors of angiogenesis on the growth of cancers, the effects of subcutaneous, intraperitoneal and oral administration of squalamine were evaluated.
In this model, there was observed little evidence of metastasis with or without treatment with chemotherapeutic agents.
Based on the idea that tumor growth involves both the clonal expansion of a malignant cell along with the development of a supporting vascular supply, a combination of compound 1436 with squalamine was tested to determine whether it would achieve a synergistic effect on solid tumor growth. This concept was evaluated in the B16 melanoma model.
Animals were implanted with B16 melanoma followed by treatment with compound 1436 or 1256 administered in a combined schedule or separately. […] Thus, a combination of these two compounds achieves a therapeutic benefit in tumors dependent on neovascularization that may prevent metastatic spread.

[4] = system: Xenopus tadpole; settings: stage 59-60, 10 μg/ml; in words
[5] = system: human microvascular cells; test: Inhibition of endothelial cell cord formation in vitro; type: cell-based; settings: Homo sapiens, Endothelial cell; Table II; read-out: Cord Formation, Minimum Effective Concentration
Text: Endothelial cells have the capacity in vitro to form tubular aggregates resembling capillaries in various early stages of formation. This conversion occurs under relatively specific conditions, in which essential growth factors along with an effective substratum are provided. It has been shown that both the interaction of growth factors with the endothelial cell and its attachment to a substratum activate the NHE. The activation of this exchanger is believed to be required for subsequent morphologic transformation of the endothelial cell into a multicellular tubular structure.
To assess the effect of compounds on the cord-like structures formed by human microvascular cells when plated in the presence of VEFG (Vascular Endothelial Growth Factor) and basic fibroblast growth factor on a collagen matrix, a standard cord formation assay was used.

[6] = system: chick embryo vitelline capillaries; test: Chick embryo vitelline capillary regression assay; type: in vivo; design: key to vascular reactivity (capillary regression): +: Vascular reactivity; 0: No vascular reactivity; +/-: Equivocal reactivity; settings: for vascular reactivity (capillary regression): 60 min; for Chick embryo diss. assay, Minimum Effective Concentration: Table II; for effect on chick embryo vessels / blood: in words
Procedure: Using the chick embryo vitelline capillaries assay, compounds were tested for their ability to induce capillary regression. Each compound was applied in 0.1 ml of 15% Ficol 400 and PBS onto the embryo, and vascular regression was assessed after 60 minutes.
The 3-day chick embryo consists of an embryonic disc from which numerous vessels emerge and return, forming a "figure 8"-shaped structure--the embryo in the center with vascular loops extending outward over both poles. […] Following a lag period of around 15 minutes, the constriction of continuity between capillary and secondary vessels, generally on the "avenous" side, was observed. Continued pulsatile blood flow progressed, resulting in a "swelling" of the blind tube, followed by a pinching off of the remaining connection and formation of an enclosed vascular sac resembling a "blood island." This process progressed until only the largest vessels remained intact.

[7] = system: Human ovarian carcinoma SKOV3; test: Growth inhibition in vitro; type: cell-based; settings: in words
Text: As set forth in Table 7 below, all malignant tumors evaluated in tissue culture, endothelial cells and vascular smooth muscle cells were sensitive to inhibition. Thus, compound 1436 has application in the control of growth factor dependent proliferation of many types of tissue.

[8] = Fasting blood glucose in mice; type: in vivo, mouse (male CD-1); settings: mouse, in vivo, iv
Procedure: To study the effect of steroid administrator or the NHE responsible for secretion of insulin, several of the aminosterols from shark liver were administered to fasting mice. Male CD-1 mice were assigned to one of four treatment groups. Whole blood glucose was tested using glucometer (Lifescan Glucometer II and One Touch test strips). Statistical analysis was via one-way analysis of variance (ANOVA) followed by subsequent Bonferonni's t-test.

[9] = system: human melanoma; test: Growth of human melanoma cells over time / cell death; type: cell-based
[10] = L1210 mice, cisplatin 8 mg/kg ip or compound 1436 10 mg/kg ip q4d

N.N.[Cl][Pt][Cl] [Cisplatin]
RBC, Early Time [1, 10]: 9.4 10^6 /mm^3 | RBC, Late Time [1, 10]: 1.5 10^6 /mm^3 | WBC, Early Time [1, 10]: 8.1 10^3 /mm^3 | WBC, Late Time [1, 10]: 18.1 10^3 /mm^3 | hematological profile ([1]; in words): profound anemia by day 28

N=C(N)NC(=O)c1nc(Cl)c(N)nc1N [Amiloride]
inhibition of NHE1β [2]: inhibited by high concentrations of amiloride

C[C@H](CCC(=O)O)[C@H]1CC[C@H]2[C@@H]3CC[C@H]4C[C@@H](NCCCNCCCCN)CC[C@]4(C)[C@H]3CC[C@]12C [Compound 319]
suppression of B16 melanoma tumor growth [3]: achieved control of B16 in C57B mice to an extent almost comparable to squalamine | suppression of B16 melanoma tumor growth ([3]; listed as compound 319): suppression of murine melanoma in mice | pharmacological response in tadpole [4]: common vascular occlusive effect | minimal effective concentration [5]: 13.8 µg/mL | vascular reactivity (capillary regression) ([6]; 0.001 μg applied): +/- | vascular reactivity (capillary regression) ([6]; 0.01 μg applied): + | vascular reactivity (capillary regression) ([6]; 0.1 μg applied): + | vascular reactivity (capillary regression) ([6]; 1 μg applied): + | vascular reactivity (capillary regression) ([6]; 10 μg applied): + | Chick embryo diss. assay, Minimum Effective Concentration [6]: 0.001 µg | effect on chick embryo vessels / blood [6]: especially active

C[C@H](CCC(=O)O)[C@H]1CC[C@H]2[C@@H]3[C@H](O)C[C@@H]4C[C@@H](NCCCNCCCCNCCCN)CC[C@]4(C)[C@H]3CC[C@]12C [Compound 413]
pharmacological response in tadpole [4]: effects like those produced by compound 1436 | vascular reactivity (capillary regression) ([6]; 1 μg applied): 0 | Chick embryo diss. assay, Minimum Effective Concentration [6]: > 1 µg

CC(C)C(CO)(CC[C@@H](C)[C@H]1CC[C@H]2[C@@H]3[C@H](O)C[C@H]4C[C@@H](NCCCNCCCCN)CC[C@]4(C)[C@H]3CC[C@]12C)OS(=O)(=O)O (some centres unmarked) [Compound 1437]
anticancer activity [7]: anticancer activity against the human ovarian carcinoma, SKOV3 | hyperglycemia [8]: caused hyperglycemia in mice | Chick embryo diss. assay, Minimum Effective Concentration [6]: > 1 µg

CC(C)CCC[C@@H](C)[C@H]1CC[C@H]2[C@@H]3CC[C@H]4C[C@@H](NCCCNCCCCNCCCN)CC[C@]4(C)[C@H]3CC[C@]12C [Compound 353]
effect on growth of melanoma ([9]; 48 hours vs first 12 hours): most pronounced over 48 hours, with less of an effect noted within the first 12 hours of incubation | mode of cell death / activity against melanoma ([9]; in words): potent activity against melanoma and a number of cancer cells; also recorded: apoptotic cell death has been induced | pharmacological response in tadpole [4]: effects like those produced by compound 1436 | vascular reactivity (capillary regression) ([6]; 1 μg applied): +/- | Chick embryo diss. assay, Minimum Effective Concentration [6]: > 1 µg | effect on chick embryo vessels / blood [6]: no effect on the chick embryo capillary bed

C[C@H](CCC(=O)O)[C@H]1CC[C@H]2[C@@H]3[C@H](O)C[C@@H]4C[C@H](NCCCNCCCCNCCCN)CC[C@]4(C)[C@H]3CC[C@]12C [Compound 412]
pharmacological response in tadpole [4]: pharmacologic activity similar to that seen for FX 3 | vascular reactivity (capillary regression) ([6]; 0.001 μg applied): 0 | vascular reactivity (capillary regression) ([6]; 0.01 μg applied): 0 | vascular reactivity (capillary regression) ([6]; 0.1 μg applied): 0 | vascular reactivity (capillary regression) ([6]; 1 μg applied): + | Chick embryo diss. assay, Minimum Effective Concentration [6]: 1 µg
